# Data from PMC6269755, “In Vitro Antiprotozoal Activity of Triterpenoid Constituents of Kleinia odora Growing in Saudi Arabia” (Molecules, 2013).
# Like-named read-outs stand apart in the source and are kept apart here.
# Legend:
# [1] = tested on: T. cruzi Tulahuen CL2 (benznidazole-sensitive); assay: Antitrypanosomal activity, T. cruzi on MRC-5 cells; assay type: cell-based, Trypanosoma cruzi; details: for IC50: pure compounds, 7 days; for T. cruzi SI: selectivity index vs MRC-5 cytotoxicity
# Description: (§1) The integrated panel of microbial screens and standard screening methodologies were adopted as previously described. All assays were performed in triplicate at the Laboratory of Microbiology, Parasitology and Hygiene at the University of Antwerp (Belgium). […] Selectivity of activity was assessed by simultaneous evaluation of cytotoxicity on a fibroblast (MRC-5) cell line.
# (§2) Trypanosoma brucei Squib-427 strain (suramin-sensitive) was cultured at 37 °C and 5% CO2 in Hirumi-9 medium, supplemented with 10% fetal calf serum (FCS). About 1.5 × 10^4 trypomastigotes/well were added to each well and parasite growth was assessed after 72 h at 37 °C by adding resazurin [35]. For Chagas disease, T. cruzi Tulahuen CL2 (benznidazole-sensitive) was maintained on MRC-5 cells in minimal essential medium (MEM) supplemented with 20 mM L-glutamine, 16.5 mM sodium hydrogen carbonate and 5% FCS. In the assay, 4 × 10^3 MRC-5 cells and 4 × 10^4 parasites were added to each well and after incubation at 37 °C for 7 days, Parasite growth was assessed by adding the […]. The color reaction was read at 540 nm after 4 h and absorbance values were expressed as a percentage of the blank controls.
# [2] = tested on: Chloroquine-resistant P. falciparum K 1-strain; assay: Antiplasmodial activity, Malstat (pLDH) assay; assay type: cell-based, Plasmodium falciparum; details: for IC50: 72 h, read-out: P. falciparum IC50; for P. falciparum SI: selectivity index vs MRC-5 cytotoxicity
# Description: as §1
# Chloroquine-resistant P. falciparum K 1-strain was cultured in human erythrocytes O^+ at 37 °C under a low oxygen atmosphere (3% O2, 4% CO2, and 93% N2) in RPMI-1640, supplemented with 10% human serum. Infected human red blood cells (200 μL, 1% parasitaemia, 2% haematocrit) were added to each well and incubated for 72 h. After incubation, test plates were frozen at −20 °C. Parasite multiplication was measured using the Malstat assay, a colorimetric method based on the reduction of 3-acetyl pyridine adenine dinucleotide (APAD) by parasite-specific lactate-dehydrogenase (pLDH).
# [3] = tested on: L. donovani; details: cited from earlier work
# [4] = tested on: T. cruzi; parameters: method as in PMID 12802734; details: ref 26; cited from earlier work
# [5] = Cytotoxicity against MRC-5 cells, resazurin; assay type: cell-based; details: human, MRC-5 SV2 fibroblast cells, pure compounds
# Description: as §1
# MRC-5 SV2 cells were cultivated in MEM, supplemented with L-glutamine (20 mM), 16.5 mM sodium hydrogen carbonate and 5% FCS. For the assay, 10^4 MRC-5 cells/well were seeded onto the test plates containing the pre-diluted sample and incubated at 37 °C and 5% CO2 for 72 h. Cell viability was assessed fluorimetrically after 4 h of addition of resazurin. Fluorescence was measured (excitation 550 nm, emission 590 nm) and the results were expressed as % reduction in cell viability compared to control.
# [6] = tested on: P. falciparum; details: cited from earlier work; for IC50: converted value in brackets, read-out: antiplasmodial IC50
# [7] = tested on: L. infantum MHOM/MA(BE)/67 amastigotes; assay: Antileishmanial activity, intracellular amastigotes in primary peritoneal mouse macrophages; assay type: cell-based, Leishmania infantum; details: for IC50: pure compounds, intracellular amastigotes, 5 days; for L. infantum SI: selectivity index vs MRC-5 cytotoxicity
# Description: The integrated panel of microbial screens and standard screening methodologies were adopted as previously described. All assays were performed in triplicate at the Laboratory of Microbiology, Parasitology and Hygiene at the University of Antwerp (Belgium). […] Selectivity of activity was assessed by simultaneous evaluation of cytotoxicity on a fibroblast (MRC-5) cell line. […] L. infantum MHOM/MA(BE)/67 amastigotes were collected from the spleen of an infected donor hamster and used to infect primary peritoneal mouse macrophages. To determine in vitro antileishmanial activity, 3 × 10^4 macrophages were seeded in each well of a 96-well plate. After 2 days outgrowth, 5 × 10^5 amastigotes/well, were added and incubated for 2 h at 37 °C. Pre-diluted plant extracts were subsequently added and the plates were further incubated for 5 days at 37 °C and 5% CO2. Parasite burdens (mean number of amastigotes/macrophage) were microscopically assessed on 500 cells after Giemsa staining of the […] expressed as a percentage of the blank controls without plant extract.
# [8] = tested on: Trypanosoma brucei Squib-427 strain (suramin-sensitive); assay: Antitrypanosomal activity, T. brucei trypomastigotes, resazurin; assay type: cell-based; details: for IC50: 72 h, pure compounds; for T. brucei SI: selectivity index vs MRC-5 cytotoxicity
# Description: as §1, §2
# [9] = tested on: T. brucei; parameters: method as in PMID 21782916, PMID 17637068; details: ref 24, 25, cited from earlier work
# [10] = tested on: peripheral blood mononuclear cells; parameters: method as in PMID 22468852; details: ref 31; cited from earlier work
# [11] = Trypanosoma cruzi, TULAHUEN, MRC5, 168 h
# [12] = Plasmodium falciparum, pure compounds, K1 strain
# [13] = Leishmania infantum, Macrophage, 120 h
# [14] = at the highest concentration tested (64 µg/mL)
SMILES,"IC50 [1, 11]","IC50 [2, 12]",T. cruzi SI [1],IC50 at 72 h [5],"IC50 [7, 13]",L. infantum SI [7],IC50 ([8]; Trypanosoma brucei),T. brucei SI [8],other results
"C[C@@H]1CC[C@]2(C)CC[C@]3(C)C(=C[C@@H](O)C4[C@@]5(C)CC[C@H](O)C(C)(C)C5CC[C@]43C)C2[C@H]1C (stereo partly drawn) (hydrate or solvate) [Cmpd. 5, 3β,11α-Dihydroxyurs-12-ene]",,,,,,,,,melting point: 205 °C
"O=C(Cn1ccnc1[N+](=O)[O-])NCc1ccccc1 [Benznidazole, reference compound]",1.9 ± 0.3 µM,,,,,,,,
"CCN(CC)CCCC(C)Nc1ccnc2cc(Cl)ccc12 (stereo not shown) [Chloroquine, reference compound]",,,,,,,,,IC50 ([2]; Plasmodium falciparum): 0.3 ± 0.05 µM
"C[C@H]1[C@H](C)CC[C@]2(C(=O)O)CC[C@]3(C)C(=CC[C@@H]4[C@@]5(C)CC[C@H](O)C(C)(C)[C@@H]5CC[C@]43C)[C@H]12 [Cmpd. 3, 3β-hydroxy-urs-12-en-28-oic acid]",8.8 ± 2.3 µM,29.7 ± 5.9 µM,1.3,11.4 ± 2.1 µM,7.4 ± 1.9 µM,1.5,2.2 ± 0.6 µM,5.2,"P. falciparum SI [2]: <1; IC50 ([3]; converted value in brackets, ref 27): 7.6 µM; L. donovani IC50 ([3]; ref 27): 3.5 µg/mL; IC50 [4]: 21 µM; IC50 ([6]; ref 28): 6.8 µM; IC50 ([6]; ref 29): 10.7 µM; antiplasmodial IC50 ([6]; ref 28): 3.1 µg/mL; antiplasmodial IC50 ([6]; ref 29): 4.9 µg/mL; IC50 ([9]; converted value in brackets): 2.2 µM; T. brucei IC50 [9]: 1.0 ± 0.2 µg/mL"
"C[C@H]1[C@H](C)CC[C@@]2(C)[C@@H]1C1=CC[C@@H]3[C@@]4(C)CC[C@H](O)C(C)(C)[C@@H]4CC[C@@]3(C)[C@]1(C)C[C@@H]2O [Cmpd. 4, urs-12-ene-3β,16β-diol]",9.3 to 9.9 µM,9.3 to 9.9 µM,>6.5,> 64 µM,9.3 to 9.9 µM,>6.9,2.3 ± 0.4 µM,>27.8,"IC50 ([2]; pure compounds, K1 strain): 9.7 ± 3.2 µM; P. falciparum SI [2]: >6.6; P. falciparum SI ([2]; listed as Brein (4)): > 6.5; IC50 [1]: 9.9 ± 2.6 µM; T. cruzi SI ([1]; listed as Brein (4)): > 6.5; IC50 [7]: 9.3 ± 2.2 µM; L. infantum SI ([7]; listed as Brein (4)): > 6.5; T. brucei SI ([8]; listed as Brein (4)): > 27.8; melting point: 221 °C"
"C[C@@H]1CC[C@]2(C)CC[C@]3(C)C(=C[C@@H](O)C4[C@@]5(C)CC[C@H](O)C(C)(C)C5CC[C@]43C)C2[C@H]1C (stereo partly drawn) [Cmpd. 5, 3β,11α-Dihydroxyurs-12-ene]",8.1 ± 1.8 µM,23.9 ± 5.7 µM,>7.9,> 64 µM,3.2 ± 0.9 µM,>20,7.9 µM,>8.2,L. infantum SI ([7]; listed as Compound 5): > 20; IC50 [8]: 7.8 ± 1.8 µM
"C[C@@H]1CCC23CC[C@]4(C)[C@@](C=CC5[C@@]6(C)CC[C@H](O)C(C)(C)C6CC[C@]54C)(OC2=O)C3[C@H]1C (stereo partly shown) [Cmpd. 6, 3-Hydroxy-13,28-epoxyurs-11-en-28-one]",> 64 µM,> 64 µM,,> 64 µM,> 64 µM,,40.9 ± 8.1 µM,,"antiprotozoal activity (P. falciparum) [2, 14]: devoid of any antiprotozoal activity; cytotoxicity towards peripheral blood mononuclear cells [10]: without cytotoxicity; IC50 ([3]; ref 31): 192 µM; antiprotozoal activity (T. cruzi) [1, 14]: devoid of any antiprotozoal activity; antiprotozoal activity (L. infantum) [7, 14]: devoid of any antiprotozoal activity"
"CCCCCCCCCCCCCCCCOP(=O)([O-])OCC[N+](C)(C)C [Miltefosine, reference compound]",,,,,10.4 ± 2.1 µM,,,,IC50 ([3]; ref 31): 9.31 µM
"Cc1ccc(C(=O)Nc2ccc(S(=O)(=O)O)c3cc(S(=O)(=O)O)cc(S(=O)(=O)O)c23)cc1NC(=O)c1cccc(NC(=O)Nc2cccc(C(=O)Nc3cc(C(=O)Nc4ccc(S(=O)(=O)O)c5cc(S(=O)(=O)O)cc(S(=O)(=O)O)c45)ccc3C)c2)c1 [Suramine, reference compound]",,,,,,,0.03 ± 0.01 µM,,
